Assay results from BigSolDB 2.1.

Oc1cccc(/C=N\NC(=S)NC2CCCCC2)c1
Conditions	solubility (mole fraction)
in PEG-400, 298.15 K	0.071
in PEG-400, 308.15 K	0.0774
in PEG-400, 318.15 K	0.0845
in PEG-400, 328.15 K	0.0929
in PEG-400, 338.15 K	0.101

solubility (mole fraction)
Conditions	in ethanol	in ethyl acetate	in ethylene glycol	in isopropanol	in propylene glycol	in transcutol	in water
298.15 K	0.0135	0.0104	0.00185	0.0302	0.0319	0.0938	3.9e-07
308.15 K	0.0141	0.0117	0.00225	0.0313	0.0332	0.0978	5.85e-07
318.15 K	0.0149	0.0132	0.0029	0.0323	0.0345	0.102	9.09e-07
328.15 K	0.0156	0.0147	0.00358	0.0335	0.036	0.106	1.36e-06
338.15 K	0.0164	0.0167	0.00454	0.0345	0.0376	0.111	1.88e-06
